Measured values taken from patent publication EP0450097B1, “BENZOHETEROCYCLIC COMPOUNDS” (OTSUKA PHARMACEUTICAL CO., LTD., priority 1989, dated 1991).

Tests used:
V₂ receptor = molecular target: T1, V₂ receptor (Rattus norvegicus, UniProt Q00788); experiment: V₂ receptor binding assay ([³H]-Arg-vasopressin, rat kidney plasma membrane preparations); conditions: 4°C for 3 hours
T1 construct: Using rat kidney plasma membrane preparations; from tissue; host or cells: rat kidney plasma membranes
Summary of the method: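 IC₅₀ reflects displacement of [³H]-vasopressin bound to rat kidney plasma membrane preparations, with excess vasopressin (10⁻⁶ M) defining nonspecific binding. Membrane-bound label separated by glass-filter (GF/F) filtration and measured by scintillation counting.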

SD rats = experiment: Anti-antidiuretic activity (effect on endogenous ADH), amount of urine; format: in vivo; conditions: for ED (3-fold urine volume): Rattus norvegicus, iv, read-out: ED₃
Description: […] During this measurement, the rats are allowed to take water and feed freely.
The amount of urine of control rats (solvent-treated group) is regarded as 100 %, and the results are expressed as ED₃ value, which is the dose of the test compound to be required to excrete the urine by three times than that of the control rats.

V₁ receptor = molecular target: T2, V₁ receptor (Rattus norvegicus, UniProt P30560); experiment: V₁ receptor binding assay ([³H]-Arg-vasopressin, rat liver plasma membrane preparations); conditions: 37°C for 10 minutes
T2 construct: Using rat liver plasma membrane preparations; from tissue; host or cells: rat liver plasma membranes
T2 sequence (P30560 whole entry): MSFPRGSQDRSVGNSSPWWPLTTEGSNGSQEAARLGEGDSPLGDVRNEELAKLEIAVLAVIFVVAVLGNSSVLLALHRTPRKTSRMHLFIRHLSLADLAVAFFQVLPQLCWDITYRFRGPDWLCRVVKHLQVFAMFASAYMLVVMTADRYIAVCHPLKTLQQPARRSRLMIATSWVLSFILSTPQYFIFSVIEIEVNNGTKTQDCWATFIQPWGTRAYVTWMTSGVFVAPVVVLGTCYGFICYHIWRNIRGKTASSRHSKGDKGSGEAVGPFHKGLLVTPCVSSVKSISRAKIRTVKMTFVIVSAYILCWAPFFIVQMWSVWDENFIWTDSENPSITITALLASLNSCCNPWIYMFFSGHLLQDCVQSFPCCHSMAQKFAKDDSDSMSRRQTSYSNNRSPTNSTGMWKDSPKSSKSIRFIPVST
Method: Using rat liver plasma membrane preparations prepared according to Ichihara's method [cf: Akira Ichihara, J. Bio. Chem., 258, 9283 (1983)], the plasma membrane (50000dpm, 2x10⁻¹⁰ M) of [³H]-Arg-vasopressin and a test compound (60 µg, 10⁻⁸-10⁻⁴ M) are incubated at 37°C for 10 minutes in 100 mM Tris-HCl buffer (pH: 8.0, 250 µl) containing 5 mM MgCl₂, 1 mM EDTA and 0.1 % BSA. After incubation, the mixture is filtered three times using the glass filter (GF/F) so as to separate the membrane preparation combined with vasopressin and then washed with the buffer (5 ml). This glass filter is taken out and mixed with liquid scintillation cocktail. The amount of [³H]-vasopressin combined with the membrane is measured by liquid scintillation counter and the rate of the inhibitory effect of the test compound is estimated according to the following equation. Rate of the inhibitory effect (%) = 100 -(C1 - B1)/(C0 - B1)X 100 [formula] C¹: The amount of [³H]-vasopressin combined with the membrane in the presence of the test compound (in prescribed amount). C⁰: The amount of [³H]-vasopressin combined with the membrane in the absence of the test compound. B¹: The amount of [³H]-vasopressin combined with the membrane in the presence of the excess amount of vasopressin (10⁻⁶ M).
The results are expressed as IC₅₀ values, which is the concentration of the test compound required to achieve the inhibitory effect in the rate of 50 %.

[1] = administered into a caudal vein, urine collected for 2 hours, dose to excrete the urine by three times that of control rats, solvent dimethylformamide

T1 sequence (Q00788 whole entry): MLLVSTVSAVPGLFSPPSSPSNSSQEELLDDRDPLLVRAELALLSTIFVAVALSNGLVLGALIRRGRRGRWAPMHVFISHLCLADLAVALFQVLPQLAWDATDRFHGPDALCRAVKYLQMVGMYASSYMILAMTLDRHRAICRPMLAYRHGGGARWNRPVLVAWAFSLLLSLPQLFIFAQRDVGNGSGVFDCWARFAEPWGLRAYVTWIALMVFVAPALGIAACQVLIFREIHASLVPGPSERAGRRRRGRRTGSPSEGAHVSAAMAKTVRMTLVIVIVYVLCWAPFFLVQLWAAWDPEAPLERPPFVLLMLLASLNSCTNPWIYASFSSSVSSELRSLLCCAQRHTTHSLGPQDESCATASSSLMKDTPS

Compound	IC50 (V₂ receptor) [nM]	IC50 (V₁ receptor) [nM]	ED (3-fold urine volume) (SD rats; [1]) [mg/kg]	ED₃ (SD rats; [1]) [mg/kg]	ED₃ (SD rats; as E3, but physiological saline solution used as solvent instead of dimethylformamide)
Cc1cccc(C(=O)Nc2ccc(C(=O)N3CCCc4ccccc43)cc2)c1C [compound 6]	76	–	10	–	–
Cc1ccccc1C(=O)Nc1ccc(C(=O)N2CCC(O)Cc3ccccc32)cc1 (stereo not shown) [compound 214]	58	270	–	–	–
COc1cc(NC(=O)c2ccccc2C)ccc1C(=O)N1CCCC(O)c2ccccc21 (stereo not shown) [compound 238]	20	390	–	–	–
Cc1ccccc1C(=O)Nc1ccc(C(=O)N2CCCC(CN)c3ccccc32)cc1 (stereo not shown) [compound 244]	18	230	–	–	–
Cc1ccccc1C(=O)Nc1ccc(C(=O)N2CCCC(N(C)C)c3ccccc32)cc1 (stereo not shown) [compound 249]	–	–	–	–	0.4 ^*) mg/kg
Cc1ccccc1C(=O)Nc1ccc(C(=O)N2CCCC(CN=[N+]=[N-])c3ccccc32)cc1 (stereo not shown) [compound 250]	120	190	–	–	–
O=C(Nc1ccc(C(=O)N2CCCC(NCc3ccccc3)c3ccccc32)cc1)c1ccccc1Cl (stereo not shown) [compound 252]	63	360	–	–	–
Cc1ccccc1C(=O)Nc1ccc(C(=O)N2CCCC(NC3CCN(Cc4ccccc4)CC3)c3ccccc32)cc1 (stereo not shown) [compound 274]	24	110	–	–	–
Cc1ccccc1C(=O)Nc1ccc(C(=O)N2CCCC(OC(=O)CN(C)C)c3ccccc32)cc1 (stereo not shown) [compound 275]	18	180	–	–	–
Cc1ccccc1C(=O)Nc1ccc(C(=O)N2CCCC(NC(=O)Nc3ccccc3)c3ccccc32)cc1 (stereo not shown) [compound 280]	45	470	–	–	–
Cc1ccccc1C(=O)Nc1ccc(C(=O)N2CCCC(OCC(=O)N3CCCC3C(N)=O)c3ccccc32)cc1 (stereo not shown) [compound 284]	19	290	–	–	–
Cc1ccccc1C(=O)Nc1ccc(C(=O)N2CCCC(OCC(=O)N3CCS(=O)(=O)CC3)c3ccccc32)cc1 (stereo not shown) [compound 286]	19	400	–	–	–
Cc1ccccc1C(=O)Nc1ccc(C(=O)N2CCCC(OCC(=O)NCc3ccncc3)c3ccccc32)cc1 (stereo not shown) [compound 290]	21	210	–	–	–
Cc1ccccc1C(=O)Nc1ccc(C(=O)N2CCCC(OCC(=O)N(C)CCO)c3ccccc32)cc1 (stereo not shown) [compound 293]	65	190	–	–	–
CN(C)c1ccccc1C(=O)Nc1ccc(C(=O)N2CCCC(N(C)C)c3ccccc32)cc1 (stereo not shown) [compound 298]	100	290	–	–	–
Cc1ccccc1C(=O)Nc1ccc(C(=O)N2CCCC(N(C)C)c3cc(Cl)ccc32)cc1 (stereo not shown) [compound 303]	25	190	–	–	–
CN(C)C1CCCN(C(=O)c2ccc(NC(=O)c3ccccc3Cl)cc2)c2ccc(Cl)cc21 (stereo not shown) [compound 304]	24	210	–	–	–
CCN(CC(=O)Nc1ccc(C(=O)N2CCCC(N(C)C)c3cc(Cl)ccc32)cc1)c1ccccc1 (stereo not shown) [compound 308]	23	110	–	–	–
CC(C)NCCCCOc1ccccc1C(=O)Nc1ccc(C(=O)N2CCCC(O)c3ccccc32)cc1 (stereo not shown) [compound 312]	290	56	–	–	–
CN(C)C1CCCN(C(=O)c2ccc(NC(=O)CNc3ccccc3Cl)cc2)c2ccccc21 (stereo not shown) [compound 315]	25	380	–	–	–
Cc1ccccc1NCC(=O)Nc1ccc(C(=O)N2CCCC(N(C)C)c3ccccc32)cc1 (stereo not shown) [compound 316]	60	470	–	–	–
COc1cc(C(=O)N2CCCC(NC3CC3)c3cc(Cl)ccc32)ccc1NC(=O)c1ccccc1Cl (stereo not shown) [compound 322]	25	44	–	–	–

Continued by falling IC50 (V₂ receptor), values first:

IC50 (V₂ receptor) [nM]	IC50 (V₁ receptor) [nM]	Compound	ED (3-fold urine volume) (SD rats; [1]) [mg/kg]	ED₃ (SD rats; [1]) [mg/kg]	ED₃ (SD rats; as E3, but physiological saline solution used as solvent instead of dimethylformamide)
16	230	Cc1ccccc1C(=O)Nc1ccc(C(=O)N2CCCC(OCC(=O)N3CCN(C)CC3)c3ccccc32)cc1 (stereo not shown) [compound 277]	–	–	–
15	260	CC(=O)N1CCN(C(=O)COC2CCCN(C(=O)c3ccc(NC(=O)c4ccccc4C)cc3)c3ccccc32)CC1 (stereo not shown) [compound 288]	–	–	–
15	430	CN(C)C1CCCN(C(=O)c2ccc(NC(=O)c3ccccc3Br)cc2)c2ccccc21 (stereo not shown) [compound 309]	–	–	–
14	64	CNC1CCCN(C(=O)c2ccc(NC(=O)c3ccccc3C)c(OC)c2)c2ccc(Cl)cc21 (stereo not shown) [compound 323]	–	–	–
13	290	Cc1ccccc1C(=O)Nc1ccc(C(=O)N2CCCC(N(C)CC(N)=O)c3ccccc32)cc1 (stereo not shown) [compound 266]	–	–	–
13	300	Cc1ccccc1C(=O)Nc1ccc(C(=O)N2CCCC(OCC(=O)N3CCOCC3)c3ccccc32)cc1 (stereo not shown) [compound 278]	–	–	–
13	78	O=C(Nc1ccc(C(=O)N2CCCC(NC3CC3)c3cc(Cl)ccc32)cc1)c1ccccc1Cl (stereo not shown) [compound 311]	–	–	–
12	–	O=C(Nc1ccc(C(=O)N2CCCC(O)c3ccccc32)cc1)c1cc(Cl)cc(Cl)c1 (stereo not shown) [compound 178]	–	4.2	–
12	32	CCN(CC(=O)Nc1ccc(C(=O)N2CCCC(OCC(=O)N(C)C)c3ccccc32)cc1)c1ccccc1 (stereo not shown) [compound 313]	–	–	–
12	59	CNC1CCCN(C(=O)c2ccc(NC(=O)c3ccccc3Cl)c(OC)c2)c2ccc(Cl)cc21 (stereo not shown) [compound 321]	–	–	–
11	180	Cc1ccccc1C(=O)Nc1ccc(C(=O)N2CCCC(OCC(=O)N3CC[S+]([O-])CC3)c3ccccc32)cc1 (stereo not shown) [compound 281]	–	–	–
11	71	CNC1CCCN(C(=O)c2ccc(NC(=O)c3ccccc3Cl)cc2)c2ccc(Cl)cc21 (stereo not shown) [compound 302]	–	–	–
10	96	CCN(CC(=O)Nc1ccc(C(=O)N2CCCC(O)c3ccccc32)c(Cl)c1)c1ccccc1 (stereo not shown) [compound 222]	–	–	–
10	24	CCN(CC(=O)Nc1ccc(C(=O)N2CCCC(NC)c3cc(Cl)ccc32)cc1)c1ccccc1 (stereo not shown) [compound 307]	–	–	–
8	150	Cc1ccccc1C(=O)Nc1ccc(C(=O)N2CCCC(OCC(=O)N3CCSCC3)c3ccccc32)cc1 (stereo not shown) [compound 279]	–	–	–
8	180	Cc1ccccc1C(=O)Nc1ccc(C(=O)N2CCCC(OCC(=O)NCC(N)=O)c3ccccc32)cc1 (stereo not shown) [compound 285]	–	–	–
8	65	Cc1ccccc1C(=O)Nc1ccc(C(=O)N2CCCC(NC3CC3)c3cc(Cl)ccc32)cc1 (stereo not shown) [compound 310]	–	–	–
7	92	Cc1cccc(C(=O)Nc2ccc(C(=O)N3CCCCc4ccccc43)cc2)c1C [compound 33]	1.9	–	–
7	160	CC(=O)OCC1CCCN(C(=O)c2ccc(NC(=O)c3ccccc3C)cc2)c2ccccc21 (stereo not shown) [compound 231]	–	–	–
7	64	CNC1CCCN(C(=O)c2ccc(NC(=O)c3ccccc3C)cc2)c2ccc(Cl)cc21 (stereo not shown) [compound 287]	–	–	–
6	130	Cc1ccccc1C(=O)Nc1ccc(C(=O)N2CCCC(CO)c3ccccc32)cc1 (stereo not shown) [compound 215]	–	–	–
6	88	Cc1ccccc1C(=O)Nc1ccc(C(=O)N2CCCC(COS(C)(=O)=O)c3ccccc32)cc1 (stereo not shown) [compound 235]	–	–	–
5	46	CC(=O)NCC1CCCN(C(=O)c2ccc(NC(=O)c3ccccc3C)cc2)c2ccccc21 (stereo not shown) [compound 255]	–	–	–
4	49	Cc1ccccc1C(=O)Nc1ccc(C(=O)N2CCC(C)C(O)c3ccccc32)cc1 (stereo not shown) [compound 256]	–	–	–
3	480	Cc1ccccc1C(=O)Nc1ccc(C(=O)N2CCCC(CNC=O)c3ccccc32)cc1 (stereo not shown) [compound 269]	–	–	–
